In the first assay the target is T1, Voltage-gated L-type calcium channel (Homo sapiens, UniProt Q13936+Q13698+Q01668+O60840). As to the kind of experiment: (§1) Inhibition of Cav1.2 current measured using QPatch automatic path clamp system in CHO cells expressing Cav1.2, beta-2 and alpha-2/delta-1 subunits. Type of assay: functional, cell-based, Cricetulus griseus. Also on record: ca sol conc 1.8 mM, temp Ambient. (In general: In patch-clamp work, channel activity is measured electrically.)
What is called IC50 is the concentration that inhibits the measured activity by half. `NC(=O)c1ncn([C@@H]2O[C@H](CO)[C@@H](O)[C@H]2O)n1` [RIBAVIRIN]: the half-maximal inhibitory concentration (IC50) was found to be 622.5 µM.
Regarding `CC(CC(c1ccccc1)c1ccccc1)NC(C)(C)C` (stereo not given) [TERODILINE], the half-inhibitory concentration (IC50) is 4.8 µM.
The same measure, in the same setting: next, `O=C1NC(=O)C(c2ccccc2)(c2ccccc2)N1` [PHENYTOIN]: 21.9 µM.
Turning to `CCCCCCCN(CC)CCCC(O)c1ccc(NS(C)(=O)=O)cc1` (stereo not given) [IBUTILIDE], the IC50 was 62.5 µM.
Consider `Fc1ccc([C@@H]2CCNC[C@H]2COc2ccc3c(c2)OCO3)cc1` [PAROXETINE], for which the half-inhibitory concentration (IC50) was determined as 3.9 µM.
The same measure, in the same setting: with `CC(C)N(CCC(C(N)=O)(c1ccccc1)c1ccccn1)C(C)C` (stereo not given) [DISOPYRAMIDE] the figure was 1036.7 µM; with `CCN1CCN(C(=O)N[C@@H](C(=O)N[C@@H]2C(=O)N3[C@@H]2SC(C)(C)[C@@H]3C(=O)O)c2ccccc2)C(=O)C1=O` [PIPERACILLIN], 1226 µM.
Turning to `O=C(CCCN1CC=C(n2c(=O)[nH]c3ccccc32)CC1)c1ccc(F)cc1` [DROPERIDOL], the 50% inhibitory concentration (IC50) was found to be 7.6 µM.
In the case of `O=C1CCc2cc(OCCCCc3nnnn3C3CCCCC3)ccc2N1` [CILOSTAZOL], the IC50 was determined as 91.2 µM.
On to `Cc1nc2n(c(=O)c1CCN1CCC(c3noc4cc(F)ccc34)CC1)CCCC2O` (stereo not given) [PALIPERIDONE], for which the 50% inhibitory concentration (IC50) came to 193.9 µM.
In the case of `O=C1NCCN1CCN1CCC(c2cn(-c3ccc(F)cc3)c3ccc(Cl)cc23)CC1` [SERTINDOLE], the IC50 was determined as 6.3 µM.
For the compound `CO/N=C(\C(=O)N[C@@H]1C(=O)N2C(C(=O)O)=C(CSc3nc(=O)c(O)nn3C)CS[C@H]12)c1csc(N)n1` [CEFTRIAXONE], the IC50 worked out at 153.8 µM.
In the case of `COc1cc(N)c(Cl)cc1C(=O)NC1CCN(CCCOc2ccc(F)cc2)CC1OC` (stereo not given) [CISAPRIDE], the IC50 was 11.8 µM.
With `Cc1cn([C@@H]2C[C@@H](O)[C@H](CO)O2)c(=O)[nH]c1=O` [TELBIVUDINE], the IC50 came out at 713.9 µM.
As to `N[C@@H](CC(=O)N1CCn2c(nnc2C(F)(F)F)C1)Cc1cc(F)c(F)cc1F` [SITAGLIPTIN], the IC50 came to 147.1 µM.
As to `CC(=O)NC[C@H]1CN(c2ccc(N3CCOCC3)c(F)c2)C(=O)O1` [LINEZOLID], the concentration for half-maximal inhibition (IC50) amounted to 105.4 µM.
For the compound `CCN(CC)CCNC(=O)c1c(C)[nH]c(/C=C2\C(=O)Nc3ccc(F)cc32)c1C` [SUNITINIB], the IC50 came out at 33.4 µM.
With `C[C@@H]1CN(c2c(F)c(N)c3c(=O)c(C(=O)O)cn(C4CC4)c3c2F)C[C@H](C)N1` [SPARFLOXACIN], the half-inhibitory concentration (IC50) came to 88.8 µM.

The next assay deals with T1, Voltage-gated L-type calcium channel. As to the kind of experiment: Inhibition of Cav1.2 current measured using PatchXpress automatic path clamp system in CHO cells expressing Cav1.2, beta-2 and alpha-2/delta-1 subunits. The format is functional, cell-based, Cricetulus griseus. More on the design: ca sol conc 1.8 mM, temp Ambient.
For `CCCC(C)C1(CC)C(=O)NC(=O)NC1=O` (stereo not given) [PENTOBARBITAL], the IC50 stood at 299 µM.

For a further assay the target is unchanged. The assay is described as §1. Type of assay: functional, cell-based, Cricetulus griseus.
`C[C@@H](c1ncncc1F)[C@](O)(Cn1cncn1)c1ccc(F)cc1F` [VORICONAZOLE]: the IC50 was found to be 414.2 µM.

For the origin of these results see ChEMBL document CHEMBL3436045 (Sci Rep, 2013).
